Patent publication US8193189B2, “Quinoxaline derivatives as tyrosine kinase activity inhibitors” (Novartis AG, priority 2007, dated 2012)
pIC50: −log10 of the molar value.

Assays:
GST-JAK2(808-1132) = molecular target: T1, GST-JAK2(808-1132) (Homo sapiens, UniProt O60674); experiment: EPK JAK-family kinases profiling assay (Caliper mobility shift), JAK2; type: biochemical; details: ATP 20 μM, 1.8 nM kinase
T1 construct: GST-JAK2(808-1132); purchased Invitrogen (Carlsbad, USA) #4288
Method in brief: (§1)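 Turnover was read as substrate/product ratio after mobility-shift capillary-like separation of each reaction, run for 60 min at 30 °C with GST-tagged kinase domain, labelled peptide and ATP, and terminated with EDTA stop buffer.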

GST-JAK1(866-1154) = molecular target: T2, GST-JAK1(866-1154) (Homo sapiens, UniProt P23458); experiment: EPK JAK-family kinases profiling assay (Caliper mobility shift), JAK1; type: biochemical; details: ATP 40 μM, 50 nM kinase
T2 construct: GST-JAK1(866-1154); made in house
T2 sequence (P23458 866-1154): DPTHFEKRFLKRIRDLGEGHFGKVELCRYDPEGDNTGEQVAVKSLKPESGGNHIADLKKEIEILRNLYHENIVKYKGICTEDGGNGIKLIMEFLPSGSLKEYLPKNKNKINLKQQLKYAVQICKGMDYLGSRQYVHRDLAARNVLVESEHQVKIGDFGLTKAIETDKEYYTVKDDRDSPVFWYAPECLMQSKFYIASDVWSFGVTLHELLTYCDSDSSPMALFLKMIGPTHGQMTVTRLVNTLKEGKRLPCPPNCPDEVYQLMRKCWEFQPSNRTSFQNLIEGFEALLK
Method in brief: as §1

[1] = tested on: JAK/STAT pathway (JAK1/JAK2-dependent nuclear translocation of STAT1-GFP); experiment: Inhibition of the JAK/STAT pathway: IFN-γ stimulated nuclear translocation of STAT1-GFP in HT1080 fibrosarcoma cells; type: cell-based; details: Homo sapiens, HT-1080; HT1080 STAT1-GFP cells, 100 ng/ml IFN-γ 2 hours, compound added 30 min before; read-out: STAT1translo IC50
Method in brief: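 HT1080 cells stably expressing STAT1-GFP, compounds added 30 min before IFN-γ stimulation at final 10 μM down to 0.003 μM (0.1% DMSO). Nuclear-cytoplasmic GFP intensity differential quantified by automated imaging with Hoechst nuclear mask, ≥1000 cells per well, averaged per well.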

GST-JAK3(811-1124) = molecular target: T3, GST-JAK3(811-1124) (Homo sapiens, UniProt P52333); experiment: EPK JAK-family kinases profiling assay (Caliper mobility shift), JAK3; type: biochemical; details: ATP 80 μM, 6 nM kinase
T3 construct: GST-JAK3(811-1124); made in house
T3 sequence (P52333 811-1124): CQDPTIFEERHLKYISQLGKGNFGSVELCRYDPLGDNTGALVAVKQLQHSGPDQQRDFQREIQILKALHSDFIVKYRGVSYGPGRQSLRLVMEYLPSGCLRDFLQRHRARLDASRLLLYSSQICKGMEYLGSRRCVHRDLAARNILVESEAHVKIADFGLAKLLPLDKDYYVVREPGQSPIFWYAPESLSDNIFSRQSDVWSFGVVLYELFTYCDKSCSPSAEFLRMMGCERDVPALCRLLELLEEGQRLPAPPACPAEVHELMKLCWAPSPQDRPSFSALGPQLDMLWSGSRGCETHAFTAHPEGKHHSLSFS
Method in brief: as §1

GST-TYK2(888-1187) = molecular target: T4, GST-TYK2(888-1187) (Homo sapiens, UniProt P29597); experiment: EPK JAK-family kinases profiling assay (Caliper mobility shift), TYK2; type: biochemical; details: ATP 30 μM, 40 nM kinase
T4 construct: GST-TYK2(888-1187); made in house
T4 sequence (P29597 888-1187): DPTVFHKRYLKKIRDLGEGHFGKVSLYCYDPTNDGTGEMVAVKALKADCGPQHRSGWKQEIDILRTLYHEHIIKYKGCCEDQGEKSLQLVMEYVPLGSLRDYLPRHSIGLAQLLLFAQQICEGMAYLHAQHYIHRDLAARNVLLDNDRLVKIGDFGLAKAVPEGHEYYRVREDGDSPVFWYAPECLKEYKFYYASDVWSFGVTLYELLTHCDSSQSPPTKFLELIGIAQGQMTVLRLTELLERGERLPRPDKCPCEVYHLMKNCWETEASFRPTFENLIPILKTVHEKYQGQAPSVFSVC
Method in brief: as §1

T1 sequence (O60674 808-1132): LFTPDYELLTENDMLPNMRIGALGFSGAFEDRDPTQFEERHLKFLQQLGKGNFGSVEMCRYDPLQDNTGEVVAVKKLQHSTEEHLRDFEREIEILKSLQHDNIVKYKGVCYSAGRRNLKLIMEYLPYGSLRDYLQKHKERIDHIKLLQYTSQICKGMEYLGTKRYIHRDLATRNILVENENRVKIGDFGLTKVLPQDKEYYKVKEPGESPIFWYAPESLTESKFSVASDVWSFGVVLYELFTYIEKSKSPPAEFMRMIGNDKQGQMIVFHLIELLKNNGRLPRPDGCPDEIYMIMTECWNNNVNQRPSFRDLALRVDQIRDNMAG

pIC50 (GST-JAK2(808-1132))	pIC50 (GST-JAK1(866-1154))	pIC50 [1]	pIC50 (GST-JAK3(811-1124))	pIC50 (GST-TYK2(888-1187))	Structure (SMILES)
7.85	6.24		5.99	5.84	Cc1cc(-c2cnc3cccc(-c4cc(F)c(CN5CCOCC5)c(F)c4)c3n2)ccc1C(=O)N1CCC(N(C)C)CC1 [Example 101, {4-[8-(3,5-Difluoro-4-morpholin-4-ylmethyl-phenyl)-quinoxalin-2-yl]-2-methyl-phenyl}-(4-dimethylamino-piperidin-1-yl)-methanone]
8.10	6.61		5.54	6.36	Fc1cc(-c2cccc3ncc(-c4cnn(C5CNC5)c4)nc23)cc(F)c1CN1CCOCC1 [Example 116, 2-(1-Azetidin-3-yl-1H-pyrazol-4-yl)-8-(3,5-difluoro-4-morpholin-4-ylmethyl-phenyl)-quinoxaline]
8.03	6.32		5.49	6.27	COCCOC(=O)N1CCC(n2cc(-c3cnc4cccc(-c5cc(F)c(CN6CCOCC6)c(F)c5)c4n3)cn2)CC1 [Example 122, 4-{4-[8-(3,5-Difluoro-4-morpholin-4-ylmethyl-phenyl)-quinoxalin-2-yl]-pyrazol-1-yl}-piperidine-1-carboxylic acid 2-methoxy-ethyl ester]
> 8.52	7.11	6.79		7.02	O=C(C1CC1)N1CCC(n2cc(-c3cnc4cccc(-c5cc(F)c(CN6CCOCC6)c(F)c5)c4n3)cn2)CC1 [Example 129, Cyclopropyl-(4-{4-[8-(3,5-difluoro-4-morpholin-4-ylmethyl-phenyl)-quinoxalin-2-yl]-pyrazol-1-yl}-piperidin-1-yl)-methanone]
8.47	6.82	6.79		6.70	COC(=O)N1CCC(n2cc(-c3cnc4cccc(-c5cc(F)c(CN6CCOCC6)c(F)c5)c4n3)cn2)CC1 [Example 130, 4-{4-[8-(3,5-Difluoro-4-morpholin-4-ylmethyl-phenyl)-quinoxalin-2-yl]-pyrazol-1-yl}-piperidine-1-carboxylic acid methyl ester]
> 8.52	7.30	7.05		7.48	Cc1nn(C2CCN(C(=O)C(C)C)CC2)cc1-c1cnc2cccc(-c3cc(F)c(CN4CCOCC4)c(F)c3)c2n1 [Example 131, 1-(4-{4-[8-(3,5-Difluoro-4-morpholin-4-ylmethyl-phenyl)-quinoxalin-2-yl]-3-methyl-pyrazol-1-yl}-piperidin-1-yl)-2-methyl-propan-1-one]
8.27	6.26	6.08		6.12	Fc1cc(-c2cccc3ncc(-c4cnn(CC5CCNCC5)c4)nc23)cc(F)c1CN1CCOCC1 [Example 133, 8-(3,5-Difluoro-4-morpholin-4-ylmethyl-phenyl)-2-(1-piperidin-4-ylmethyl-1H-pyrazol-4-yl)-quinoxaline]
8.34	6.54	6.27		6.59	CC(C)(C)OC(=O)N1CCC(n2cc(-c3cnc4cccc(-c5cc(F)c(CN6CCOCC6)c(F)c5)c4n3)cn2)CC1 [Example 136, 4-{4-[8-(3,5-Difluoro-4-morpholin-4-ylmethyl-phenyl)-quinoxalin-2-yl]-pyrazol-1-yl}-piperidine-1-carboxylic acid tert-butyl ester]
8.00	6.60	6.16		6.52	Fc1cc(-c2cccc3ncc(-c4cnn(C5CCNCC5)c4)nc23)ccc1CN1CCOCC1 [Example 145, 8-(3-Fluoro-4-morpholin-4-ylmethyl-phenyl)-2-(1-piperidin-4-yl-1H-pyrazol-4-yl)-quinoxaline]

The remaining lines, values behind:

Structure (SMILES)	pIC50 (GST-JAK2(808-1132))	pIC50 (GST-JAK1(866-1154))	pIC50 [1]	pIC50 (GST-JAK3(811-1124))	pIC50 (GST-TYK2(888-1187))
COc1cc(-c2cnc3cccc(-c4ccc(CC(=O)N5CCOCC5)cc4)c3n2)ccc1OCCN1CCOCC1 [Example 34, 2-(4-{3-[3-Methoxy-4-(2-morpholin-4-yl-ethoxy)-phenyl]-quinoxalin-5-yl}-phenyl)-1-morpholin-4-yl-ethanone]	8.39	7.57	6.47	6.31	7.06
COc1cc(-c2cnc3cccc(-c4ccc(C(=O)N5CCOCC5)c(F)c4)c3n2)ccc1OCCN1CCOCC1 [Example 35, (2-Fluoro-4-{3-[3-methoxy-4-(2-morpholin-4-yl-ethoxy)-phenyl]-quinoxalin-5-yl}-phenyl)-morpholin-4-yl-methanone]	7.92	7.03	5.76	5.73	6.28
Cc1cc(-c2cnc3cccc(-c4cc(F)c(CN5CCOCC5)c(F)c4)c3n2)ccc1C(=O)N1CCN(C)CC1 [Example 42, {4-[8-(3,5-Difluoro-4-morpholin-4-ylmethyl-phenyl)-quinoxalin-2-yl]-2-methyl-phenyl}-(4-methyl-piperazin-1-yl)-methanone]	7.74	6.15	6.07	5.67	5.84
CS(=O)(=O)c1ccc(-c2cccc3ncc(-c4cnn(C5CCNCC5)c4)nc23)cc1 [Example 144, 8-(4-Methanesulfonyl-phenyl)-2-(1-piperidin-4-yl-1H-pyrazol-4-yl)-quinoxaline]	7.60	6.02	5.12		6.01
Cc1cc(-c2cccc3ncc(-c4cnn(C5CCNCC5)c4)nc23)ccc1CN1CCOCC1 [Example 146, 8-(3-Methyl-4-morpholin-4-ylmethyl-phenyl)-2-(1-piperidin-4-yl-1H-pyrazol-4-yl)-quinoxaline]	8.04	6.08	5.47		6.24
O=S1(=O)CCN(Cc2ccc(-c3cccc4ncc(-c5cnn(C6CCNCC6)c5)nc34)cc2)CC1 [Example 148, 8-[4-(1,1-Dioxido-thiomorpholin-4-ylmethyl)-phenyl]-2-(1-piperidin-4-yl-1H-pyrazol-4-yl)-quinoxaline]	8.47	7.14	6.14		6.96
Cc1cc(CN2CCS(=O)(=O)CC2)ccc1-c1cccc2ncc(-c3cnn(C4CCNCC4)c3)nc12 [Example 149, 8-[4-(1,1-Dioxido-thiomorpholin-4-ylmethyl)-2-methyl-phenyl]-2-(1-piperidin-4-yl-1H-pyrazol-4-yl)-quinoxaline]	7.29	6.19	5.02		6.05
c1cc(-c2ccc(CN3CCOCC3)cc2)c2nc(-c3cnn(C4CCNCC4)c3)cnc2c1 [Example 150, 8-(4-Morpholin-4-ylmethyl-phenyl)-2-(1-piperidin-4-yl-1H-pyrazol-4-yl)-quinoxaline]	7.52	6.08	5.37		6.08
CN1CCN(c2cccc(-c3cnc4cccc(-c5cc(F)c(CN6CCS(=O)(=O)CC6)c(F)c5)c4n3)c2)CC1 [Example 170, 8-[4-(1,1-Dioxido-thiomorpholin-4-ylmethyl)-3,5-difluoro-phenyl]-2-[3-(4-methyl-piperazin-1-yl)-phenyl]-quinoxaline]	8.40	7.68	6.53		6.85
